Experimental data: patent US20230097157A1, “Bicyclic Pyridin-2-one and pyrimidin-4-one Derivatives Useful As a Factor XIa Inhibitors” (Janssen Pharmaceutica NV, priority 2021, published 2023)
Read-outs that look alike come from different tables or passages of the source.

Experiments:
human plasma kallikrein = human plasma kallikrein (Homo sapiens, UniProt P03952); assay: Kallikrein inhibition assay (FLINT) utilizing a quenched AMC peptide substrate Z-Gly-Pro-Arg-AMC; format: biochemical; details: kinetic (KIN) reads, read-out: Kallikrein KIN Inh IC50
Sequence of human plasma kallikrein (P03952 391-638 limits assumed): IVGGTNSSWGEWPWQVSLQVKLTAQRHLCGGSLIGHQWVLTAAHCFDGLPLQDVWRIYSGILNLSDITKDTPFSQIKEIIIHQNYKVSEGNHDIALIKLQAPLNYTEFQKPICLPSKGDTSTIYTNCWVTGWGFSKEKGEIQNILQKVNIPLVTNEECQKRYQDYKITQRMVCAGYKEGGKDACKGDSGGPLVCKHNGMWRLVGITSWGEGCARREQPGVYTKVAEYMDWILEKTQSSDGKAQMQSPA
Sequence of human plasma kallikrein (P03952 20-390 partner limits assumed): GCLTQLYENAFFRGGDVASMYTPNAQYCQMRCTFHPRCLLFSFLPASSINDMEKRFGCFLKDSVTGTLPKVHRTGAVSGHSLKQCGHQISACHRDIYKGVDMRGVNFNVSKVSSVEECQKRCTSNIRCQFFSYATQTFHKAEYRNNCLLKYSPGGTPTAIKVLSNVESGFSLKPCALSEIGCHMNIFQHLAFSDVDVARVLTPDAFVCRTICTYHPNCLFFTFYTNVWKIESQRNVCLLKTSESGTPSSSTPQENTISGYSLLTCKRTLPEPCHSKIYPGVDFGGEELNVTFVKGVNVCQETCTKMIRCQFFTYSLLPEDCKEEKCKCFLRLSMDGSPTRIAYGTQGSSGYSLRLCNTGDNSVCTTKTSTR
Text: Biological Example 2: Kallikrein Inhibition Assay Utilizing a Quenched AMC Peptide Substrate A fluorescence intensity (FLINT) based assay was used to monitor inhibition of human plasma kallikrein. The peptide substrate, Z-Gly-Pro-Arg-AMC (Purchased from Bachem; Catalog #I-1150) was chosen based on its relatively low KM for kallikrein which enables running the assay at lower substrate concentrations to control background fluorescence.
The Kallikrein FLINT assay was used with the following Z-Gly-Pro-Arg-AMC assay buffer: 50 mM Tris, pH 7.5, 100 mM NaCl, 5 mM CaCl2, 0.1 mg/mL BSA, 0.03% CHAPS. Assay buffer was prepared by mixing all ingredients fresh. 2× Z-Gly-Pro-Arg-AMC peptide substrate was prepared by diluting 10 mM stock into 1× assay buffer for a 100 μM working concentration (50 μM final concentration). The 2× kallikrein stock solution was prepared by diluting 14.76 μM stock in 1× assay buffer for a 4 nM working stock solution (2 nM final concentration).
Test compound(s) were run in an 11-point, 3-fold serial dilution with a final top compound concentration of 1 μM. Final DMSO in assay was 2%. Plasma kallikrein was pre-incubated for 30-minute with compound and then 50 μM substrate was added to initiate the reaction. The assay was run with kinetic (KIN) reads at 5 min intervals over 30 minutes. The time course was linear using 2 nM kallikrein greater than 30 minutes. More specifically, the assay was run as follows: • 100 nL of 0.1 mM test compound was dispensed into black 384-well non-binding Greiner BioOne 784900 plate for 1 μM final concentration; • 5 μL of 1× assay buffer was dispensed to columns 24 (low control) and 5 μL 2× human kallikrein enzyme solution was dispensed to columns 1-23 (column 23 high control); • the plate was centrifuged with a “cover” plate at 500 rpm for 1 min • the plate was pre-incubated for 30 minutes at room temperature with plate covered; • 5 μL of 2× Z-Gly-Pro-Arg-AMC peptide substrate was dispensed into the entire plate, columns 1-24; • the plate was centrifuged with a “cover” plate at 500 rpm for 1 min; • the plate was read monitoring fluorescence intensity on the BMG PHERAStar at room temperature, using fluorescence module 340 nm/440 nm.
(§1) Percent inhibition (IC50) curves were generated per compound tested, and data was analyzed using a 4-parameter logistic fit using GeneData Screener. The relative fluorescence unit (RFU) values were normalized to percent inhibition using the following equation:
% inhibition=((HC−LC)−(compound−LC)/(HC−LC))*100 where LC—low control=mean signal of […] or 100% inhibition of human kallikrein enzyme; HC—high control=mean signal of […]+Z-Gly-Pro-Arg-AMC peptide substrate with DMSO only.
(§2) An 11-point dose response curve for the test compound(s) was generated using GENDATA to determine IC50 value based on the following equation:
(§3) Y=Bottom+(Top−Bottom)/(1+10^((log IC50−X)*HillSlope)) where Y is the % inhibition in the presence of X inhibitor concentration, Top=high control=mean signal of human kallikrein enzyme+Z-Gly-Pro-Arg-AMC peptide substrate with DMSO only; Bottom=low control−mean signal of no human kallikrein enzyme or 100% inhibition of human kallikrein enzyme; HillSlope−Hill coefficient; and IC50=concentration of compound with 50% inhibition in relation to top/high control.

Factor XIa = Factor XIa (Homo sapiens, UniProt P03951); assay: Factor XIa inhibition assay (FLINT) utilizing a fluorophore-quencher pair peptide substrate 5Fam-[…]-K5Tamra; format: biochemical; details: kinetic (KIN) reads, read-out: FXIa KIN Inh IC50
Sequence of Factor XIa (P03951 388-625 limits assumed): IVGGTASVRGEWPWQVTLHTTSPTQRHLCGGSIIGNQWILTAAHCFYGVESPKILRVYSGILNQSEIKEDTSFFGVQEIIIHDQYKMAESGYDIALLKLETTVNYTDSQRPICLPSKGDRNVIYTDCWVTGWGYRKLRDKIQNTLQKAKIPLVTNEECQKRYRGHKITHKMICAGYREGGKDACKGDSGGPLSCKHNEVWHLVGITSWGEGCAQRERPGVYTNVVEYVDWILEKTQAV
Sequence of Factor XIa (P03951 19-387 partner limits assumed): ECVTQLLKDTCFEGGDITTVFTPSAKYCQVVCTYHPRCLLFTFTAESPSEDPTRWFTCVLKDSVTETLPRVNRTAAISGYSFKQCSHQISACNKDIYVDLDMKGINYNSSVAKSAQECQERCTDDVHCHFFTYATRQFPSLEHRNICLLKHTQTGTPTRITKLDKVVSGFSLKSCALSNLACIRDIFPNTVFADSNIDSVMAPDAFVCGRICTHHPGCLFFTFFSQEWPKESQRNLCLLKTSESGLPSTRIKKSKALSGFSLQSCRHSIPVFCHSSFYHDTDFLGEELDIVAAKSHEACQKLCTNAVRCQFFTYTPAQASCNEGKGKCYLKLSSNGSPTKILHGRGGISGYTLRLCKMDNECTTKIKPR
Text: Biological Example 1: Factor XIa Inhibition Assay Utilizing a Fluorophore-Quencher Pair Peptide Substrate A fluorescence intensity (FLINT) based assay was used to monitor inhibition of Factor XIa. The peptide substrate, 5Fam-[…]-K5Tamra (purchased from New England Peptide) was chosen based on the FXI sequence. Conversion of zymogen FXI to its activated form, FXIa, occurs by proteolytic cleavage by […] at two sites, Arg146 and Arg180. The custom peptide used in this assay was based on the Arg146 cleavage site of FXI. The peptide substrate was designed with a fluorophore-quencher pair, where the fluorescence is quenched until FXIa cleaves the 8-mer peptide after the Arg residue.
The Factor XIa FLINT assay was used with the following 5Fam-[…]-K5Tamra assay buffer: 50 mM Tris, pH 7.5, 100 mM NaCl, 5 mM CaCl2, 0.1 mg/mL BSA, 0.03% CHAPS. Assay buffer was prepared by mixing all ingredients fresh. 5Fam-[…]-K5Tamra peptide substrate was first prepared at 10 mM in 100% DMSO, then diluted to 3 mM in 100% DMSO. Assay buffer was then added directly to the 3 mM stock of substrate to prepare the 30 μM 2× working concentration (15 μM final concentration). The 2× Factor XIa stock solution was prepared by diluting 6.562 μM stock in 1× assay buffer for a […].
Test compound(s) were run in an 11-point, 3-fold serial dilution with a final top compound concentration of 100 nM. Final DMSO in assay was 2%. FXIa was preincubated with compound for 30-minutes and then substrate was added to initiate the reaction. The assay was run with kinetic (KIN) reads at 5 min intervals over 30 minutes. […] More specifically, the assay was run as follows: • 100 nL of 0.01 mM test compound was dispensed into black 384-well non-binding Greiner BioOne 784900 plate for 0.1 μM final concentration; • 5 μL of 1× assay buffer was dispensed to column 24 (low control) and 5 μL 2× Factor XIa solution was dispensed to columns 1-23 (column 23 high control); • the plate was centrifuged with a “cover” plate at 500 rpm for 1 min • the plate was pre-incubated for 30 minutes at room temperature with plate covered; • 5 μL of 2×5Fam-[…]-K5Tamra peptide substrate was dispensed into the entire plate, columns 1-24; • the plate was centrifuged with a “cover” plate at 500 rpm for 1 min; • the plate was read monitoring fluorescence intensity on the BMG PHERAStar at room temperature, using fluorescence module 485 nm/520 nm.
as §1
% inhibition=((HC−LC)−(compound−LC)/(HC−LC))*100 where LC−low control=mean signal of no Factor XIa or 100% inhibition of Factor XIa; HC−high control=mean signal of Factor XIa+5Fam-[…]-K5Tamra peptide substrate with DMSO only.
as §2
as §3, with “Factor XIa+5Fam-[…]-K5Tamra” for “human kallikrein enzyme+Z-Gly-Pro-Arg-AMC”, “Factor XIa” for “human kallikrein enzyme”, “Factor XIa;” for “human kallikrein enzyme;”

Work on `C[C@@H]1C[C@H](c2ncc(-c3ccnc(F)c3)[nH]2)n2c1cc(-c1c(-n3cnnn3)ccc(Cl)c1F)cc2=O` (stereo in doubt) [Example 43, (1*R,3*R)-7-(3-Chloro-2-fluoro-6-(1H-tetrazol-1-yl)phenyl)-3-(5-(2-fluoropyridin-4-yl)-1H-imidazol-2-yl)-1-methyl-2,3-dihydroindolizin-5(1H)-one] yielded an IC50 (human plasma kallikrein; values in nM) of 108 nM and an IC50 (Factor XIa; values in nM) of 12.4 nM.

`C[C@@H]1C[C@@H](c2ncc(-c3cnc(N)c(F)c3)[nH]2)n2c1cc(-c1c(-n3cnnn3)ccc(Cl)c1F)cc2=O` (relative stereo) [Example 62, (1*R,3*S)-3-(5-(6-amino-5-fluoropyridin-3-yl)-1H-imidazol-2-yl)-7-(3-chloro-2-fluoro-6-(1H-tetrazol-1-yl)phenyl)-1-methyl-2,3-dihydroindolizin-5(1H)-one] was tested, and the IC50 (human plasma kallikrein; values in nM) was 18.1 nM and the IC50 (Factor XIa; values in nM) was 19.6 nM.

Compound `CC(=O)Nc1ncc(-c2cnc(C3CC4(CC4)c4cc(-c5c(-n6cnnn6)ccc(Cl)c5F)cc(=O)n43)[nH]2)s1` (stereo not drawn) [Example 22] has an IC50 (human plasma kallikrein; values in nM) of 294 nM and an IC50 (Factor XIa; values in nM) of 253 nM.

With `Nc1ccc(-c2[nH]c(C3CC4(CC4)c4nc(-c5c(-n6cnnn6)ccc(Cl)c5F)cc(=O)n43)nc2F)c(F)n1` (stereo in doubt) [Example 76, (S)-6′-(5-(6-amino-2-fluoropyridin-3-yl)-4-fluoro-1H-imidazol-2-yl)-2′-(3-chloro-2-fluoro-6-(1H-tetrazol-1-yl)phenyl)-6′,7′-dihydro-4′H-spiro[cyclopropane-1,8′-pyrrolo[1,2-a]pyrimidin]-4′-one] the IC50 (human plasma kallikrein; values in nM) was 12.1 nM and the IC50 (Factor XIa; values in nM) was 0.8 nM.

Compound `COC(=O)Nc1ccc(-c2cnc([C@H]3C[C@@H](C)c4nc(-c5c(-n6cnnn6)ccc(Cl)c5F)cc(=O)n43)[nH]2)cn1` (stereo in doubt) [Example 117, Methyl (5-(2-((6*R,8*R)-2-(3-Chloro-2-fluoro-6-(1H-tetrazol-1-yl)phenyl)-8-methyl-4-oxo-4,6,7,8-tetrahydropyrrolo[1,2-a]pyrimidin-6-yl)-1H-imidazol-5-yl)pyridin-2-yl)carbamate] has an IC50 (human plasma kallikrein; unit μM) greater than 10000 nM and an IC50 (Factor XIa; unit μM) of 6100 nM.

`C[C@@H]1C[C@H](c2ncc(-c3cnc(N)nc3)[nH]2)n2c1nc(-c1c(-n3cnnn3)ccc(Cl)c1F)cc2=O` (stereo in doubt) [Example 114, (6*R,8*R)-6-(5-(2-Aminopyrimidin-5-yl)-1H-imidazol-2-yl)-2-(3-chloro-2-fluoro-6-(1H-tetrazol-1-yl)phenyl)-8-methyl-7,8-dihydropyrrolo[1,2-a]pyrimidin-4(6H)-one] showed an IC50 (human plasma kallikrein; values in nM) of 284 nM and an IC50 (Factor XIa; values in nM) of 111 nM.

For `[2H]C([2H])([2H])OC(=O)Nc1ccc(-c2cnc(C3CC4(CC4)c4nc(-c5c(-n6cnnn6)ccc(Cl)c5F)cc(=O)n43)[nH]2)cc1` (single isomer, unassigned) [Example 71, Methyl-d3 (R*)-(4-(2-(2′-(3-Chloro-2-fluoro-6-(1H-tetrazol-1-yl)phenyl)-4′-oxo-6′,7′-dihydro-4′H-spiro[cyclopropane-1,8′-pyrrolo[1,2-a]pyrimidin]-6′-yl)-1H-imidazol-5-yl)phenyl)carbamate], the IC50 (human plasma kallikrein; values in nM) was 736 nM and the IC50 (Factor XIa; values in nM) was greater than 100 nM.

`C[C@@H]1C[C@@H](c2ncc(-c3ccnc(CO)c3F)[nH]2)n2c1cc(-c1c(-n3cnnn3)ccc(Cl)c1F)cc2=O` (relative stereo) [Example 1, (1R*,3S*)-7-(3-Chloro-2-fluoro-6-(1H-tetrazol-1-yl)phenyl)-3-(5-(3-fluoro-2-(hydroxymethyl)pyridin-4-yl)-1H-imidazol-2-yl)-1-methyl-2,3-dihydroindolizin-5(1H)-one] showed an IC50 (human plasma kallikrein; values in nM) of 47 nM and an IC50 (Factor XIa; values in nM) of 11 nM.

`CC1C[C@H](c2nc(-c3cnc(N)cn3)c[nH]2)n2c1nc(-c1c(-n3cc(C(F)(F)F)nn3)ccc(Cl)c1F)cc2=O` (stereo partly drawn) [Example 79, (6R)-6-(4-(5-aminopyrazin-2-yl)-1H-imidazol-2-yl)-2-(3-chloro-2-fluoro-6-(4-(trifluoromethyl)-1H-1,2,3-triazol-1-yl)phenyl)-8-methyl-7,8-dihydropyrrolo[1,2-a]pyrimidin-4(6H)-one] showed an IC50 (human plasma kallikrein; values in nM) of 324 nM and an IC50 (Factor XIa; values in nM) of 63.5 nM.

With `C[C@@H]1C[C@H](c2ncc(-c3ccnc(CN)c3)[nH]2)n2c1cc(-c1c(-n3cnnn3)ccc(Cl)c1F)cc2=O` (relative stereo) [Example 38, (1*R,3*R)-3-(5-(2-(Aminomethyl)pyridin-4-yl)-1H-imidazol-2-yl)-7-(3-chloro-2-fluoro-6-(1H-tetrazol-1-yl)phenyl)-1-methyl-2,3-dihydroindolizin-5(1H)-one] the IC50 (human plasma kallikrein; values in nM) was 539 nM and the IC50 (Factor XIa; values in nM) was 42.9 nM.

Compound `C[C@H]1C[C@@H](c2ncc(-c3ccc4c(c3)CC(=O)N4)[nH]2)n2c1nc(-c1c(-n3cnnn3)ccc(Cl)c1F)cc2=O` (stereo in doubt) [Example 113, (6*S,8*S)-2-(3-Chloro-2-fluoro-6-(1H-tetrazol-1-yl)phenyl)-8-methyl-6-(5-(2-oxoindolin-5-yl)-1H-imidazol-2-yl)-7,8-dihydropyrrolo[1,2-a]pyrimidin-4(6H)-one] has an IC50 (human plasma kallikrein; values in nM) of 16.8 nM and an IC50 (Factor XIa; values in nM) of 0.7 nM.

In the case of `COC(=O)Nc1ccc(-c2cnc([C@@H]3C[C@H](C)c4nc(-c5c(-n6cnnn6)ccc(Cl)c5F)cc(=O)n43)[nH]2)cc1` (stereo in doubt) [Example 125, Methyl (4-(2-((6*S,8*S)-2-(3-Chloro-2-fluoro-6-(1H-tetrazol-1-yl)phenyl)-8-methyl-4-oxo-4,6,7,8-tetrahydropyrrolo[1,2-a]pyrimidin-6-yl)-1H-imidazol-5-yl)phenyl)carbamate], the IC50 (human plasma kallikrein; values in nM) is reported as 3 nM and the IC50 (Factor XIa; values in nM) is reported as 0.5 nM.
